This note sets out measurements from publication PMC10439952, “JT002, a small molecule inhibitor of the NLRP3 inflammasome for the treatment of autoinflammatory disorders” (Scientific Reports, 2023).

What all share (format): cell-based
In experiment [1] the target is T1, NLRP3 inflammasome (Homo sapiens, UniProt Q96P20). The experiment is described as follows: Inhibition of IL-1β production in LPS + ATP stimulated (canonical) human whole blood. The arrangement: host or cells: fresh heparinised human whole blood from healthy volunteers. Conditions: read-out: Geo Av IC50, IL-1β. As to the method:
(§1) Inflammasome activation and whole blood assays were essentially carried out as described earlier. Details can be found in the supplementary information section accompanying this publication. A protocol for blood draws from healthy volunteers and use of the blood in preclinical assays was approved by Western Institutional Review Board, Inc (Puyallup, WA, USA). Informed consent was obtained from each donor prior to the first blood draw.
Cell viability was determined by addition of an equal volume of CellTiter-Glo® 2.0 reagent (Promega) to the remaining cells/supernatant in each well. Intracellular Caspase-1 activity was measured using the Caspase-Glo® assay (Promega) according to the manufacturer’s instructions. The biochemical capsase-1 assay was conducted at Reaction Biology Corporation (Malvern, USA). Human IL-1β, IL-1α, and TNFα and mouse IL-1β were measured in cell culture supernatants using homogeneous time resolved fluorescence assay kits (HTRF, Cisbio, Codolet, France). Human IL-18 was measured in cell culture supernatants using an ELISA kit (R&D Systems, Minneapolis, MN, USA). Plasma IL-1β concentrations were determined by Quantikine® ELISA (R&D Systems, Minneapolis, MN). […]
flagellin, prepared in Opt iMEM and combined with Lipofectamine 2000. […]

Experiment [2] relates to intracellular caspase-1 activity. The experiment is described as follows: Intracellular caspase-1 activity in human PBMCs stimulated with LPS + nigericin (Caspase-Glo). As to conditions: Human PBMC, read-out: Geo Av IC50, Caspase-1. As for the experimental part:
(§2) Cell viability was determined by addition of an equal volume of CellTiter-Glo® 2.0 reagent (Promega) to the remaining cells/supernatant in each well. Intracellular Caspase-1 activity was measured using the Caspase-Glo® assay (Promega) according to the manufacturer’s instructions. The biochemical capsase-1 assay was conducted at Reaction Biology Corporation (Malvern, USA). Human IL-1β, IL-1α, and TNFα and mouse IL-1β were measured in cell culture supernatants using homogeneous time resolved fluorescence assay kits (HTRF, Cisbio, Codolet, France). Human IL-18 was measured in cell culture supernatants using an ELISA kit (R&D Systems, Minneapolis, MN, USA). Plasma IL-1β concentrations were determined by Quantikine® ELISA (R&D Systems, Minneapolis, MN).
(§3) 4H). MS: m/z 433.1 (M+H+).
Inflammasome activation.PBMCs (iXCells Biotechnologies, San Diego, USA) were thawed the day before the assay and seeded in complete medium (RPMI 1640 medium with GlutaMAX, supplemented with an additional 2.5 g/L D-glucose, 10% Fet al Bovine Serum, 100 mM Sodium Pyruvate, 1% Penicillin/Streptomycin, 10 mM HEPES and 0.05 mM β -mercaptoethanol) in polystyrene V-bottom 96-well plates at 5x10^4 cells per well and incubated overnight at 37°C with 5% CO 2. The next day, PBMC media was r eplaced with serum-fr ee media p rior t o the assay. […]

Experiment [3] concerns the target T1, NLRP3 inflammasome. Description: Inhibition of IL-1β, IL-18 and IL-1α production in human PBMCs stimulated by LPS + ATP. Also on record: host or cells: human PBMCs; fresh heparinised human whole blood from healthy volunteers. Conditions: Human PBMC. As for the experimental part: as §1, §2, §3
Inflammasome activation.PBMCs (iXCells Biotechnologies, San Diego, USA) were thawed the day before the assay and seeded in complete medium (RPMI 1640 medium with GlutaMAX, supplemented with an additional 2.5 g/L D-glucose, 10% Fet al Bovine Serum, 100 mM Sodium Pyruvate, 1% Penicillin/Streptomycin, 10 mM HEPES and 0.05 mM β -mercaptoethanol) in polystyrene V-bottom 96-well plates at 5x10^4 cells per well and incubated overnight at 37°C with 5% CO 2. […]
flagellin, prepared in Opt iMEM and combined with Lipofectamine 2000. […] After priming Nlrp3 -/- mBMDMs with 100 ng/mL of LPS for 3- 5 h, cells were exposed to 100 ng/mL L18- MDP and incubated overnight.At the end of the incubation period of the assays above, plates were briefly centri fuged and hal f of the cell culture supern atant remo ved and either analysed i mmediately or stored at - 80°C for subs equent cytokine […]

T1 sequence (Q96P20 whole entry): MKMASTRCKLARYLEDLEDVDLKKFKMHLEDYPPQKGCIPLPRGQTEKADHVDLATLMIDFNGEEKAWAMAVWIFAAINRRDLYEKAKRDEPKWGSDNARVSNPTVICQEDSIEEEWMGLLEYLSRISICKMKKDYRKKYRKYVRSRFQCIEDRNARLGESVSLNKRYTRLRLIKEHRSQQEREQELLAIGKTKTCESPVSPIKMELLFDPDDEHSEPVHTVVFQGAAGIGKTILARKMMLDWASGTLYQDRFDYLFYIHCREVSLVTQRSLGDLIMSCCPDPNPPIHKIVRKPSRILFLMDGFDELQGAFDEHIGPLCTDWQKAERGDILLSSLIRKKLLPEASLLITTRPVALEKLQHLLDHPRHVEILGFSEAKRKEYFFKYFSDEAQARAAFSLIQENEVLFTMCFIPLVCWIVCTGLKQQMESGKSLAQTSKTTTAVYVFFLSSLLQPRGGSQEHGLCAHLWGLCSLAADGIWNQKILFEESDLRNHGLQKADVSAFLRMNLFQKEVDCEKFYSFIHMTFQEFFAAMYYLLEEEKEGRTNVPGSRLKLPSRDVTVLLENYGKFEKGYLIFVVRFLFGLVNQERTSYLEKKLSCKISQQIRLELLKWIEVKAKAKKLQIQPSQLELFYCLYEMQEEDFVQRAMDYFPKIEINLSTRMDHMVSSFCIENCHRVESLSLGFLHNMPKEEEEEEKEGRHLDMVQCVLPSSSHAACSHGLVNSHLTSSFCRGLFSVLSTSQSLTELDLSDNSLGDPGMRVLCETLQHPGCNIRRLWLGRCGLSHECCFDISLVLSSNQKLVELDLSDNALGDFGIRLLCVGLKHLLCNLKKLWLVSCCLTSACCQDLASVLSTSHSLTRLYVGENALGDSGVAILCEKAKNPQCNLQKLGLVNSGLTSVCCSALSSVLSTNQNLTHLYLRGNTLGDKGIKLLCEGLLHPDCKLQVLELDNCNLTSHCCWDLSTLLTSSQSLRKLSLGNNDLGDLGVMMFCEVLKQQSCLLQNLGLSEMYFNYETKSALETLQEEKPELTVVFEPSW

Broadly, the IC50 is the point on the concentration scale where inhibition reaches its midpoint. Consider `CO[C@@H]1COc2c(S(=O)(=O)NC(=O)Nc3c4c(cc5c3CCC5)CCC4)cnn2C1` [JT002], for which the IC50 in experiment [1] was found to be 100 nM; in experiment [2] it was 8 nM; in experiment [3] (read-out: Geo Av IC50, IL-1α), 3 nM; in experiment [3] (read-out: Geo Av IC50, IL-1β), 4 nM; in experiment [3] (read-out: Geo Av IC50, IL-18), 4 nM.
